# Data reported in ChEMBL document CHEMBL4014286, “Discovery of orally active hepatoselective glucokinase activators for treatment of Type II Diabetes Mellitus” (Bioorg Med Chem Lett, 2017).
# The source made the active and inactive calls. No cut-off for these calls is given here.
# Assays:
# [1] = Total drug level in HFD-fed C57BL/6 mouse plasma at 10 mg/kg, po measured 4 hrs post dose; format: ADME, organism-based
# [2] = Total drug level in HFD-fed C57BL/6 mouse liver at 30 mg/kg, po measured 4 hrs post dose; format: ADME, organism-based; settings: read-out: Drug uptake
# [3] = Ratio of drug level in HFD-fed C57BL/6 mouse liver to pancreas at 3 mg/kg, po measured 4 hrs post dose; format: ADME, organism-based; settings: in vivo
# [4] = Total drug level in HFD-fed C57BL/6 mouse plasma at 30 mg/kg, po measured 4 hrs post dose; format: ADME, organism-based
# Mus musculus [5] = assay: Toxicity in HFD-fed C57BL/6 mouse assessed as increase in plasma insulin level at 10 mg/kg, po; format: organism-based; settings: in vivo
# [6] = Ratio of drug level in HFD-fed C57BL/6 mouse liver to plasma at 30 mg/kg, po measured 4 hrs post dose; format: ADME, organism-based
# [7] = Total drug level in HFD-fed C57BL/6 mouse liver at 3 mg/kg, po measured 4 hrs post dose; format: ADME, organism-based; settings: read-out: Drug uptake
# [8] = Ratio of drug level in HFD-fed C57BL/6 mouse pancreas to plasma at 30 mg/kg, po measured 4 hrs post dose; format: ADME, organism-based
# [9] = Half life in rat; format: ADME; settings: in vivo
# [10] = Ratio of drug level in HFD-fed C57BL/6 mouse liver to pancreas at 10 mg/kg, po measured 4 hrs post dose; format: ADME, organism-based; settings: in vivo
# [11] = Ratio of drug level in HFD-fed C57BL/6 mouse pancreas to plasma at 3 mg/kg, po measured 4 hrs post dose; format: ADME, organism-based
# [12] = Ratio of drug level in HFD-fed C57BL/6 mouse liver to pancreas at 30 mg/kg, po measured 4 hrs post dose; format: ADME, organism-based; settings: in vivo
# [13] = Total drug level in HFD-fed C57BL/6 mouse plasma at 3 mg/kg, po measured 4 hrs post dose; format: ADME, organism-based
# [14] = Fraction unbound in C57BL/6 mouse plasma; format: ADME, cell-free
# Mus musculus [15] = assay: Antidiabetic activity in HFD-fed C57BL/6 mouse assessed as decrease in blood glucose level at 30 mg/kg, po; format: functional, organism-based
# [16] = Ratio of drug level in HFD-fed C57BL/6 mouse liver to plasma at 10 mg/kg, po measured 4 hrs post dose; format: ADME, organism-based
# Mus musculus [17] = assay: Toxicity in HFD-fed C57BL/6 mouse assessed as increase in plasma insulin level at 30 mg/kg, po; format: organism-based; settings: in vivo
# [18] = Total drug level in HFD-fed C57BL/6 mouse pancreas at 10 mg/kg, po measured 4 hrs post dose; format: ADME, organism-based; settings: read-out: Drug uptake
# [19] = Total drug level in HFD-fed C57BL/6 mouse pancreas at 3 mg/kg, po measured 4 hrs post dose; format: ADME, organism-based; settings: read-out: Drug uptake
# [20] = Total drug level in HFD-fed C57BL/6 mouse liver at 10 mg/kg, po measured 4 hrs post dose; format: ADME, organism-based; settings: read-out: Drug uptake
# [21] = Clearance in rat; format: ADME; settings: in vivo
# [22] = Mean residence time in rat; format: ADME; settings: in vivo
# [23] = Oral bioavailability in rat; format: ADME, organism-based; settings: in vivo
# [24] = Ratio of drug level in HFD-fed C57BL/6 mouse pancreas to plasma at 10 mg/kg, po measured 4 hrs post dose; format: ADME, organism-based
# [25] = Apparent permeability of the compound; format: physicochemical; settings: not told
# [26] = Ratio of drug level in HFD-fed C57BL/6 mouse liver to plasma at 3 mg/kg, po measured 4 hrs post dose; format: ADME, organism-based
# [27] = Total drug level in HFD-fed C57BL/6 mouse pancreas at 30 mg/kg, po measured 4 hrs post dose; format: ADME, organism-based; settings: read-out: Drug uptake
# Mus musculus [28] = assay: Antidiabetic activity in HFD-fed C57BL/6 mouse assessed as decrease in blood glucose level at 10 mg/kg, po; format: functional, organism-based
# Hexokinase-4 = molecular target: T1, Hexokinase-4 (Homo sapiens, UniProt P35557); assay: Activation of recombinant human glucokinase assessed as conversion of D-glucose to D-glucose-6-phosphate in presence of 10 mM glucose by G6PDH coupled spectrophotometric assay
# T1 sequence (P35557 whole entry): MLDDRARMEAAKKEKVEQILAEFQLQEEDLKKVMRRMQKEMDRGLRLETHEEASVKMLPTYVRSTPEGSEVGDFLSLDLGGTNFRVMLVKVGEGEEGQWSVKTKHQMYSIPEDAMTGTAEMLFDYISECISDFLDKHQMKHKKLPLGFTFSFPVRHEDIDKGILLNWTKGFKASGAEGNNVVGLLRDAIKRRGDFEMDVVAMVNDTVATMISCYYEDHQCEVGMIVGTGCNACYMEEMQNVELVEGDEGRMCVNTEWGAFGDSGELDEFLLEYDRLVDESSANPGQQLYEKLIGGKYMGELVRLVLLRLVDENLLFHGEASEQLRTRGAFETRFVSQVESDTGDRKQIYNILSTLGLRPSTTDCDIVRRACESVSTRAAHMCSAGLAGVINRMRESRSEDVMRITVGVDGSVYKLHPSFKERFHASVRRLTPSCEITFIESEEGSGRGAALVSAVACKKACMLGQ
# [29] = Ratio of drug level in HFD-fed C57BL/6 mouse liver to plasma at 30 mg/kg, ip measured 4 hrs post dose; format: ADME, organism-based
# Mus musculus [30] = assay: Antidiabetic activity in HFD-fed C57BL/6 mouse assessed as decrease in plasma insulin level at 30 mg/kg, ip; format: functional, organism-based
# [31] = Ratio of drug level in HFD-fed C57BL/6 mouse pancreas to plasma at 30 mg/kg, ip measured 4 hrs post dose; format: ADME, organism-based
# [32] = Total drug level in HFD-fed C57BL/6 mouse pancreas at 30 mg/kg, ip measured 4 hrs post dose; format: ADME, organism-based; settings: read-out: Drug uptake
# [33] = Oral bioavailability in mouse; format: ADME, organism-based; settings: in vivo
# Mus musculus [34] = assay: Toxicity in HFD-fed C57BL/6 mouse assessed as increase in plasma insulin level at 10 mg/kg, ip; format: organism-based; settings: in vivo
# Mus musculus [35] = assay: Antidiabetic activity in HFD-fed C57BL/6 mouse assessed as decrease in blood glucose level at 10 to 30 mg/kg, ip; format: functional, organism-based
# [36] = Total drug level in HFD-fed C57BL/6 mouse liver at 30 mg/kg, ip measured 4 hrs post dose; format: ADME, organism-based; settings: read-out: Drug uptake
# [37] = Total drug level in HFD-fed C57BL/6 mouse plasma at 30 mg/kg, ip measured 4 hrs post dose; format: ADME, organism-based
# [38] = Ratio of drug level in HFD-fed C57BL/6 mouse liver to pancreas at 30 mg/kg, ip measured 4 hrs post dose; format: ADME, organism-based; settings: in vivo
smiles,measurement,setting,value
O=C(O)Cc1nc(NC(=O)c2nc(Sc3ccccn3)ccc2Sc2ccc(F)cc2)sc1Cl,concentration at 4 h,[1],4.5 µM
same,concentration at 4 h,[2],127 µM
same,Ratio,[3],159
same,concentration at 4 h,[4],19.6 µM
same,Activity,Mus musculus [5],Non-Toxic
same,Kp at 4 h,[6],6.7
same,concentration at 4 h,[7],10.4 µM
same,Kp at 4 h,[8],0.11
same,half-life,[9],3.9 h
same,Ratio,[10],127 to 128
same,Kp at 4 h,[11],0.13
same,Ratio,[12],70
same,concentration at 4 h,[13],0.62 µM
same,fraction unbound,[14],0.049
same,Activity,Mus musculus [15],Active
same,Kp at 4 h,[16],12.4
same,Activity,Mus musculus [17],Toxic
same,concentration at 4 h,[18],0.47 µM
same,concentration at 4 h,[19],0.074 µM
same,concentration at 4 h,[20],51.5 µM
same,clearance,[21],50 mL/min/kg
same,MRT,[22],1.4 h
same,bioavailability,[23],25%
same,Kp at 4 h,[24],0.1
same,Papp,[25],25 ×10⁻⁶ cm/s
same,Kp at 4 h,[26],17.7
same,concentration at 4 h,[27],2.1 µM
same,Activity,Mus musculus [28],Active
same,EC50,Hexokinase-4,9.6 nM
COc1ccc(Sc2ccc(Sc3ccccn3)nc2C(=O)Nc2nc(CC(=O)O)c(Cl)s2)cc1,Papp,[25],22 ×10⁻⁶ cm/s
same,EC50,Hexokinase-4,5.7 nM
Cc1ccc(Sc2ccc(Sc3nnc[nH]3)nc2C(=O)Nc2ncns2)cn1,concentration at 4 h,[1],18.5 µM
same,Activity,Mus musculus [5],Toxic
same,half-life,[9],2.7 h
same,Ratio,[10],8.9
same,Kp at 4 h,[16],4.5
same,concentration at 4 h,[18],8.7 µM
same,concentration at 4 h,[20],77.7 µM
same,clearance,[21],1.9 mL/min/kg
same,bioavailability,[23],100%
same,Kp at 4 h,[24],0.5
same,Papp,[25],21 ×10⁻⁶ cm/s
same,Activity,Mus musculus [28],Active
same,EC50,Hexokinase-4,27.7 nM
COc1ccc(Sc2ccc(Sc3ccccn3)nc2C(=O)Nc2ncc(SCC(=O)O)s2)cc1,half-life,[9],2.1 h
same,fraction unbound,[14],0.003
same,clearance,[21],28 mL/min/kg
same,MRT,[22],0.76 h
same,bioavailability,[23],57%
same,Papp,[25],26 ×10⁻⁶ cm/s
same,EC50,Hexokinase-4,14 nM
COc1ccc(Sc2ccc(Sc3ccccn3)nc2C(=O)Nc2ncc(CCC(=O)O)s2)cc1,EC50,Hexokinase-4,68.5 nM
COc1ccc(Sc2ccc(Sc3ccccn3)nc2C(=O)Nc2nc(CC(=O)O)cs2)cc1,EC50,Hexokinase-4,49 nM
COc1ccc(Sc2ccc(Sc3nncn3C)nc2C(=O)Nc2ncc(SCC(=O)O)s2)cc1,Kp at 4 h,[29],14.9
same,Activity,Mus musculus [30],Active
same,half-life,[9],2 h
same,Kp at 4 h,[31],0.16
same,concentration at 4 h,[32],4 µM
same,bioavailability,[33],3%
same,clearance,[21],115 mL/min/kg
same,Activity,Mus musculus [34],Non-Toxic
same,Activity,Mus musculus [35],Active
same,MRT,[22],0.64 h
same,bioavailability,[23],1 to 1.2%
same,Papp,[25],2 ×10⁻⁶ cm/s
same,concentration at 4 h,[36],452 µM
same,concentration at 4 h,[37],31 µM
same,Ratio,[38],113
same,EC50,Hexokinase-4,51.5 nM
